These results are taken from US6297247A, “Sulfonamide inhibitors of matrix metalloproteinases” (priority 2000, dated 2001).

Structures can show the parent of a compound that is named as a salt.

The target of assay [1] is T1, SCD (stromelysin-1 catalytic domain) (Homo sapiens, UniProt P08254).
T1 construct: SCD (stromelysin-1 catalytic domain)
The assay is described as follows: Inhibition of stromelysin-1 catalytic domain (SCD), thiopeptolide substrate. As to conditions: thiopeptolide substrate Ac-Pro-Leu-Gly-thioester-Leu-Leu-Gly-OEt. It counts as biochemical. As for the experimental part:
IC50 values were determined using a thiopeptolide substrate, Ac-Pro-Leu-Gly-thioester-Leu-Leu-Gly-OEt (Ye Q.-Z., Johnson L. L., Hupe D. J. and Baragi V., "Purification and Characterization of the Human Stromelysin Catalytic Domain Expressed in Escherichia coli", Biochemistry,1992;31:11231-11235).

In assay [2] the target is GCD (recombinant gelatinase A catalytic domain). As to the kind of experiment: Inhibition of recombinant gelatinase A catalytic domain (GCD), thiopeptolide substrate. The format is biochemical. As to conditions: thiopeptolide substrate Ac-Pro-Leu-Gly-thioester-Leu-Leu-Gly-OEt.
Assay [3] concerns experimental allergic encephalomyelitis (EAE). As to conditions: in vivo; cited from earlier work.
Another assay relates to bovine nasal cartilage. As to conditions: cited from earlier work.
In another assay the test system is pig articular cartilage. Particulars: cited from earlier work.

T1 sequence (P08254 100-272 limits assumed): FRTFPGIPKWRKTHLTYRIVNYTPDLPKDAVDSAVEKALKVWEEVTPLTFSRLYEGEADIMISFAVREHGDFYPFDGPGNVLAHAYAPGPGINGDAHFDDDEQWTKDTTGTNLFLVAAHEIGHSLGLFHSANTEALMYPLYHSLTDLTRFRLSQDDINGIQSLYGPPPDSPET

Take `O=C(O)[C@H](Cc1ccccc1)NS(=O)(=O)c1ccc(N2CCN(c3cccc(O)c3)CC2)cc1` [Example 17, (S)-2-{4-[-4-(3-Hydroxy-phenyl)-piperazin-1-yl]-benzenesulfonylamino}-3-phenyl-propionic acid hydrobromide]: the IC50 (commonly the concentration at which inhibition is half-maximal) in assay [1] is 0.077 µM; in assay [2] it was 0.18 µM.

Regarding `CNC(=O)[C@H](Cc1c[nH]c2ccccc12)NC(=O)[C@@H](CC(=O)NO)CC(C)C` [GM6001], in assay [3], the “development or clinical expression of EAE” value was “suppressed the development or reversed the clinical expression of experimental allergic encephalomyelitis (EAE) in a dose dependent manner”.

In the case of `O=C(O)CCNS(=O)(=O)c1ccc(N2CCC(c3ccccc3)CC2)cc1` [Example 3, 3-[4-(4-Phenyl-piperidin-1-yl)-benzenesulfonylamino]-propionic acid], the values for the IC50 in assay [1] and in assay [2] were 1.24 µM and 4.8 µM, respectively.

Turning to `O=C(O)[C@H](Cc1ccccc1)NS(=O)(=O)c1ccc(N2CCC(Cc3ccccc3)CC2)cc1` [Example 12, (S)-2-[4-(4-Benzyl-piperidin-1-yl)-benzenesulfonylamino]-3-phenyl-propionicacid], the half-inhibitory concentration (IC50) came out at 0.6 µM in assay [1] and 3.2 µM in assay [2].

On to “TIMP-1: natural endogenous inhibitors of MMPs (TIMPS)”, for which the “formation of collagen fragments and proteoglycan fragments” value is “prevented the formation of collagen fragments, but not proteoglycan fragments” with bovine nasal cartilage and “prevented the formation of collagen fragments, but not proteoglycan fragments” with pig articular cartilage.

As to `O=C(O)[C@H](Cc1ccccc1)NS(=O)(=O)c1ccc(N2CCN(c3ccccc3)CC2)cc1` [Example 15, (S)-3-Phenyl-2-[4-(4-phenyl-piperazin-1-yl)-benzenesulfonylamino]-propionicacid], the IC50 in assay [1] is 0.021 µM; in assay [2], 0.088 µM.

Regarding `CC(C)CN(CC(=O)O)S(=O)(=O)c1ccc(N2CCC(c3ccccc3)CC2)cc1` [Example 11, {Isobutyl-[4-(4-phenyl-piperidin-1-yl)-benzenesulfonyl]amino}-acetic acid], the IC50 was 0.17 µM in assay [1] and 3.3 µM in assay [2].

As for `CC(C)C[C@@H](NS(=O)(=O)c1ccc(N2CCC(c3ccccc3)CC2)cc1)C(=O)O` [Example 4, (R)-4-Methyl-2-[4-(4-phenyl-piperidin-1-yl)-benzenesulfonylamino]-pentanoic acid], the results for the IC50 in assay [1] and in assay [2] were 0.036 µM and 0.93 µM, respectively.

On to `O=C(O)CNS(=O)(=O)c1ccc(N2CCC(c3ccccc3)CC2)cc1` [Example 1, [4-(4-Phenyl-piperidin-1-yl)-benzenesulfonylamino]-acetic acid], for which the IC50 in assay [2] was 0.21 µM.

Take `O=C(O)[C@H](Cc1c[nH]c2ccccc12)NS(=O)(=O)c1ccc(N2CCC(c3ccccc3)CC2)cc1` [Example 8, (S)-3-(1H-Indol-3-yl)-2-[4-(4-phenyl-piperidin-1-yl)-benzenesulfonylamino]-propionic acid]: the IC50 was 0.01 µM in assay [1] and 0.32 µM in assay [2].

Regarding `O=C(O)CNS(=O)(=O)c1ccc(N2CCN(c3ccccc3)CC2)cc1` [Example 10, [4-(4-Phenyl-piperazin-1-yl)-benzenesulfonylamino]-acetic acid], the half-inhibitory concentration (IC50) came out at 0.05 µM in assay [1] and 0.5 µM in assay [2].

Regarding `COc1ccc(N2CCN(c3ccc(S(=O)(=O)N[C@@H](Cc4ccccc4)C(=O)O)cc3)CC2)cc1` [Example 18, (S)-2-{4-[-4-(4-Methoxy-phenyl)-piperazin-1-yl]-benzenesulfonylamino}-3-phenyl-propionic acid], in assay [2], the IC50 was 0.033 µM.

For `CC(C)C[C@H](NS(=O)(=O)c1ccc(N2CCC(c3ccccc3)CC2)cc1)C(=O)O` [Example 5, (S)-4-Methyl-2-[4-(4-phenyl-piperidin-1-yl)-benzenesulfonylamino]-pentanoic acid], the results for the IC50 in assay [1] and in assay [2] were 0.011 µM and 0.084 µM, respectively.

Consider `O=C(O)C(CCCc1ccccc1)NS(=O)(=O)c1ccc(N2CCC(c3ccccc3)CC2)cc1` (racemic) [Example 9, (±)-5-Phenyl-2-[4-(4-phenyl-piperidin-1-yl)-benzenesulfonylamino]-pentanoic acid], for which the IC50 in assay [1] came to 0.3 µM; in assay [2], 0.4 µM.

`O=C(O)[C@@H](Cc1ccccc1)NS(=O)(=O)c1ccc(N2CCC(c3ccccc3)CC2)cc1` [Example 7, (R)-3-Phenyl-2-[4-(4-phenyl-piperidin-1-yl)-benzenesulfonylamino]-propionic acid]: the IC50 in assay [1] worked out at 0.012 µM; in assay [2] it was 0.12 µM.

Consider `O=C(O)[C@H](Cc1ccccc1)NS(=O)(=O)c1ccc(N2CCC(c3ccccc3)CC2)cc1` [Example 6, (S)-3-Phenyl-2-[4-(4-phenyl-piperidin-1-yl)-benzenesulfonylamino]-propionic acid], for which the IC50 in assay [2] is 0.22 µM.

Consider `O=C(O)[C@H](Cc1ccc(O)cc1)NS(=O)(=O)c1ccc(N2CCC(c3ccccc3)CC2)cc1` [Example 14, (S)-3-(4-Hydroxy-phenyl)-2-[4-(4-phenyl-piperidin-1-yl)-benzenesulfonylamino]-propionic acid], for which the IC50 in assay [1] was found to be 0.015 µM; in assay [2] it was 0.13 µM.

For `COc1cccc(N2CCN(c3ccc(S(=O)(=O)N[C@@H](Cc4ccccc4)C(=O)O)cc3)CC2)c1` [Example 16, (S)-2-{4-[-4-(3-Methoxy-phenyl)-piperazin-1-yl]-benzenesulfonylamino}-3-phenyl-propionic acid], the IC50 in assay [1] was determined as 0.062 µM; in assay [2], 0.33 µM.

For the compound `O=C(CNS(=O)(=O)c1ccc(N2CCC(c3ccccc3)CC2)cc1)NO` [Example 2, N-Hydroxy-2-[4-(4-phenyl-piperidin-1-yl)-benzenesulfonylamino]-acetamide], the concentration for half-maximal inhibition (IC50) in assay [2] came out at 0.81 µM.

As for `O=C(O)[C@H](Cc1ccc(OCc2ccccc2)cc1)NS(=O)(=O)c1ccc(N2CCC(c3ccccc3)CC2)cc1` [Example 13, (S)-3-(4-Benzyloxy-phenyl)-2-[4-(4-phenyl-piperidin-1-yl)-benzenesulfonylamino]-propionic acid], the results for the IC50 in assay [1] and in assay [2] were 0.19 µM and 5.3 µM, respectively.
